Results from US20210330611A1, “THERAPY FOR NEUROLOGICAL DISEASES/DISORDERS” (priority 2020, published 2021).
Counter-ions that a name gives are not always drawn. Like-named read-outs stand apart in the source and are kept apart here. Where a SMILES comes first, the peptide text is derived from it. Bridges are numbered along the chain shown (N, C = ends). [ ]: non-standard residue; d: D form. The star is where a group is joined. X1 = CC[C@H](C)CCCCC(=O)*; Dab = NCC[C@H](N)C(=O)O

Tests used:
primary rat microglia [1] = assay: Cell toxicity (dead cells, size <150 μm2) in coated fibrin (cFib) assay;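 further: share of dead cells sized under 150 µm2 at 10 µM in fibrin-stimulated microglia HTS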
[2] = test system: LPS-induced microglia activation; assay: Image-based assay of LPS-induced microglia activation (HTS and dose response); format: cell-based, rat; conditions: for inhibition at 10 µM: Rattus norvegicus, Microglia, read-out: LPS % inhibition
[3] = test system: fibrin-induced microglia activation; assay: Image-based assay of fibrin-induced microglia activation (HTS and dose response); format: cell-based, rat; conditions: for inhibition at 10 µM: Rattus norvegicus, Microglia, read-out: Fibrin % inhibition
primary rat microglia [4] = assay: Cell toxicity (dead cells, size <150 μm2) in LPS assay
[5] = test system: fibrin- and LPS-induced microglia activation; assay: cells; format: cell-based, rat
[6] = primary HTS, 10 μM, fibrin assay, dead cells size <150 μm2
[7] = primary HTS, 10 μM, LPS-stimulated primary microglia
[8] = primary HTS, 10 μM, fibrin-stimulated primary microglia
[9] = primary HTS, 10 μM, LPS assay, dead cells size <150 μm2
[10] = primary microglia HTS, fibrin stimulation, toxicity = cell size <150 μm2
[11] = 48 h, primary microglia HTS, LPS stimulation, activation = cell size >800 μm2
[12] = primary microglia HTS, fibrin stimulation, activation = cell size >800 μm2
[13] = primary microglia HTS, LPS stimulation, toxicity = cell size <150 μm2
[14] = quadrant by fibrin and LPS inhibition in HTS of 1907 compounds
[15] = primary microglia HTS, 10 μM, fibrin assay, cell size <150 μm^2 as marker of toxicity
[16] = primary microglia HTS, 10 μM, LPS-stimulated, cell size >800 μm^2 as marker of activation
[17] = primary microglia HTS, 10 μM, fibrin-stimulated, cell size >800 μm^2 as marker of activation
[18] = primary microglia HTS, 10 μM, LPS assay, cell size <150 μm^2 as marker of toxicity
[19] = HTS of 1907 compounds, quadrant by fibrin and LPS inhibition
[20] = primary microglia HTS, fibrin stimulation, decreased size (<150 μm^2) as marker of toxicity
[21] = primary microglia HTS, LPS stimulation, increased cell size (>800 μm^2) as marker of activation
[22] = primary microglia HTS, fibrin stimulation, increased cell size (>800 μm^2) as marker of activation
[23] = primary microglia HTS, LPS stimulation, decreased size (<150 μm^2) as marker of toxicity

In the case of `COc1ccccc1Oc1c(NS(=O)(=O)c2ccc(C(C)(C)C)cc2)nc(-c2ncccn2)nc1OCCO` [Bosentan], the “Fibrin % cell toxicity” value (primary rat microglia [1]; [6]) is reported as 1%, the inhibition at 10 µM [2, 7] is reported as 10% and the inhibition at 10 µM [3, 8] is reported as -14%. The “LPS % cell toxicity” value (primary rat microglia [4]; [9]) was 0% and the “Quadrant (FIG. 5b)” value ([5]; primary HTS, 10 μM) was “Q4”.

In the case of `CC1Cc2ccccc2N1NC(=O)c1ccc(Cl)c(S(N)(=O)=O)c1` (centres unmarked) [Indapamide], the “Fibrin % cell toxicity” value (primary rat microglia [1]; [10]) is reported as 0%, the inhibition at 10 µM [2, 11] is reported as 11% and the inhibition at 10 µM [3, 12] is reported as -14%. The “LPS % cell toxicity” value (primary rat microglia [4]; [13]) was 0% and the “Quadrant (FIG. 5b)” value [5, 14] was “Q4”.

With Candicidin the “Fibrin % cell toxicity” value (primary rat microglia [1]; [6]) was 1%, the LPS % inhibition [2, 7] was 31% and the Fibrin % inhibition [3, 8] was −41%. The “LPS % cell toxicity” value (primary rat microglia [4]; [9]) was 0% and the “Quadrant (FIG. 5b)” value ([5]; primary HTS, 10 μM) was “Q4”.

With `CC(N)CCCC(C)(C)O` (centres unmarked) [Heptaminol Hydrochloride] the “Fibrin % cell toxicity” value (primary rat microglia [1]; [10]) was 1%, the inhibition at 10 µM [2, 11] was 13% and the inhibition at 10 µM [3, 12] was -19%. The “LPS % cell toxicity” value (primary rat microglia [4]; [13]) was 0% and the “Quadrant (FIG. 5b)” value [5, 14] was “Q4”.

For `COc1cc(C(=O)NCc2ccc(OCCN(C)C)cc2)cc(OC)c1OC` [Trimethobenzamide], the “Fibrin % cell toxicity” value (primary rat microglia [1]; [15]) was 1%, the inhibition at 10 µM [2, 16] was 17% and the inhibition at 10 µM [3, 17] was 16%. For the same compound, the “LPS % cell toxicity” value (primary rat microglia [4]; [18]) was 0% and the “Quadrant (FIG. 5b)” value [5, 19] was “Q4”.

In the case of `CC[C@H](C)CCCCC(=O)N[C@@H](CCN)C(=O)N[C@H](C(=O)N[C@@H](CCN)C(=O)N[C@H]1CCNC(=O)[C@H]([C@@H](C)O)NC(=O)[C@H](CCN)NC(=O)[C@H](CCN)NC(=O)[C@H](CC(C)C)NC(=O)[C@@H](Cc2ccccc2)NC(=O)[C@H](CCN)NC1=O)[C@@H](C)O` [Polymyxin B1] (X1-[Dab]T[Dab][Dab][Dab][dF]L[Dab][Dab]T; lactam 4-C), the “Fibrin % cell toxicity” value (primary rat microglia [1]; [20]) is reported as 1%, the LPS % inhibition [2, 21] is reported as 60% and the Fibrin % inhibition [3, 22] is reported as −21%. The “LPS % cell toxicity” value (primary rat microglia [4]; [23]) was 1% and the “Quadrant (FIG. 5b)” value [5, 14] was “Q1”.

`CC(=O)O[C@H]1C[C@@H]2CC[C@@H]3[C@H](CC[C@@]4(C)[C@H]3C[C@H]([N+]3(C)CCCCC3)[C@@H]4OC(C)=O)[C@@]2(C)C[C@@H]1N1CCCCC1` [Vecuronium Bromide] was tested, and the “Fibrin % cell toxicity” value (primary rat microglia [1]; [15]) was 1%, the LPS % inhibition [2, 16] was 23% and the Fibrin % inhibition [3, 17] was 7%. For the same compound, the “LPS % cell toxicity” value (primary rat microglia [4]; [18]) was 0% and the “Quadrant (FIG. 5b)” value [5, 19] was “Q4”.

With `CNCCc1ccccn1` [Betahistine] the “Fibrin % cell toxicity” value (primary rat microglia [1]; [6]) was 1%, the inhibition at 10 µM [2, 7] was 13% and the inhibition at 10 µM [3, 8] was -29%. For the same compound, the “LPS % cell toxicity” value (primary rat microglia [4]; [9]) was 0% and the “Quadrant (FIG. 5b)” value ([5]; primary HTS, 10 μM) was “Q4”.

With `Nc1nc(F)nc2c1ncn2[C@@H]1O[C@H](COP(=O)(O)O)[C@@H](O)[C@@H]1O` [Fludarabine Phosphate] the “Fibrin % cell toxicity” value (primary rat microglia [1]; [10]) was 1%, the inhibition at 10 µM [2, 11] was 11% and the inhibition at 10 µM [3, 12] was 1%. For the same compound, the “LPS % cell toxicity” value (primary rat microglia [4]; [13]) was 0% and the “Quadrant (FIG. 5b)” value [5, 14] was “Q4”.

In the case of `COc1ccc2[nH]cc(CCNC(C)=O)c2c1` [Melatonin], the “Fibrin % cell toxicity” value (primary rat microglia [1]; [20]) is reported as 1%, the inhibition at 10 µM ([2]; 48 h, primary microglia HTS, LPS stimulation, increased cell size (>800 μm^2) as marker of activation) is reported as -3% and the inhibition at 10 µM [3, 22] is reported as 4%. For the same compound, the “LPS % cell toxicity” value (primary rat microglia [4]; [23]) was 0% and the “Quadrant (FIG. 5b)” value [5, 14] was “Q4”.

`CCN(CC)CCNC(=O)COc1ccc(OC)cc1` [Mefexamide, Mefexamide Hydrochloride] was tested, and the “Fibrin % cell toxicity” value (primary rat microglia [1]; [20]) was 0%, the LPS % inhibition [2, 21] was −2% and the Fibrin % inhibition [3, 22] was −13%. The “LPS % cell toxicity” value (primary rat microglia [4]; [23]) was 0% and the “Quadrant (FIG. 5b)” value [5, 14] was “Q4”.

With `CC1(C)S[C@@H]2[C@H](NC(=O)[C@H](C(=O)O)c3ccsc3)C(=O)N2[C@H]1C(=O)O` [Ticarcillin Disodium] the “Fibrin % cell toxicity” value (primary rat microglia [1]; [15]) was 0%, the inhibition at 10 µM [2, 16] was 7% and the inhibition at 10 µM [3, 17] was -22%. For the same compound, the “LPS % cell toxicity” value (primary rat microglia [4]; [18]) was 0% and the “Quadrant (FIG. 5b)” value [5, 19] was “Q4”.

With `O=C(O)c1ccccc1Nc1cccc(C(F)(F)F)c1` [Flufenamic Acid] the “Fibrin % cell toxicity” value (primary rat microglia [1]; [10]) was 0%, the inhibition at 10 µM [2, 11] was -1% and the inhibition at 10 µM [3, 12] was -20%. The “LPS % cell toxicity” value (primary rat microglia [4]; [13]) was 0% and the “Quadrant (FIG. 5b)” value [5, 14] was “Q4”.
